In PubChem BioAssay AID1963982 (Molecular Pharmacology Branch, DTP, NCI, 2024):

System: 313798-341-R-J2-PDC spheroids, viability
Experiment: Anticancer human tumor 313798-341-R-J2-PDC patient-derived cervical squamous cell carcinoma cell line growth inhibition [PI3K]
Settings: spheroids with HUVEC and MSC; for IC50: curve of first compound; for viability, T/C: stronger effect = lower value
How it was run: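 Targeted small molecules plus PI3K inhibitors, half-log dose series from Cmax (default top 10 microM), were applied to heterotypic spheroids of cancer cells with HUVEC and MSCs. Viability indicated growth inhibition.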

[1] = second compound 0.0316 µM, first compound 0.0316 µM
[2] = second compound 0.0316 µM, first compound 0.1 µM
[3] = second compound 0.0316 µM, first compound 0.316 µM
[4] = second compound 0.0316 µM, first compound 1 µM
[5] = second compound 0.0316 µM, first compound 3.16 µM
[6] = second compound 0.0316 µM, first compound 10 µM
[7] = second compound 0.1 µM, first compound 0.0316 µM
[8] = second compound 0.1 µM, first compound 0.1 µM
[9] = second compound 0.1 µM, first compound 0.316 µM
[10] = second compound 0.1 µM, first compound 1 µM
[11] = second compound 0.1 µM, first compound 3.16 µM
[12] = second compound 0.1 µM, first compound 10 µM
[13] = second compound 0.316 µM, first compound 0.0316 µM
[14] = second compound 0.316 µM, first compound 0.1 µM
[15] = second compound 0.316 µM, first compound 0.316 µM
[16] = second compound 0.316 µM, first compound 1 µM
[17] = second compound 0.316 µM, first compound 3.16 µM
[18] = second compound 0.316 µM, first compound 10 µM
[19] = second compound 1 µM, first compound 0.0316 µM
[20] = second compound 1 µM, first compound 0.1 µM
[21] = second compound 1 µM, first compound 0.316 µM
[22] = second compound 1 µM, first compound 1 µM
[23] = second compound 1 µM, first compound 3.16 µM
[24] = second compound 1 µM, first compound 10 µM
[25] = second compound 3.16 µM, first compound 0.0316 µM
[26] = second compound 3.16 µM, first compound 0.1 µM
[27] = second compound 3.16 µM, first compound 0.316 µM
[28] = second compound 3.16 µM, first compound 1 µM
[29] = second compound 3.16 µM, first compound 3.16 µM
[30] = second compound 3.16 µM, first compound 10 µM
[31] = second compound 10 µM, first compound 0.0316 µM
[32] = second compound 10 µM, first compound 0.1 µM
[33] = second compound 10 µM, first compound 0.316 µM
[34] = second compound 10 µM, first compound 1 µM
[35] = second compound 10 µM, first compound 3.16 µM
[36] = second compound 10 µM, first compound 10 µM
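Further: spheroids exposed to compounds for seven days.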
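Wherever viability, T/C is given: 100% = DMSO vehicle control viability.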

Q: Which IC50 (second compound 0.0316 µM) does the source give for `CC1(C)CCC(CN2CCN(c3ccc(C(=O)NS(=O)(=O)c4ccc(NCC5CCOCC5)c([N+](=O)[O-])c4)c(Oc4cnc5[nH]ccc5c4)c3)CC2)=C(c2ccc(Cl)cc2)C1` + Cc1nc(NC(=O)N2CCCC2C(N)=O)sc1-c1ccnc(C(C)(C)C(F)(F)F)c1 here?
A: 5.81 µM

Q: What about the IC50 (second compound 0.1 µM) of the same compound?
A: 5.8 µM

Q: What about the IC50 (second compound 0.316 µM) of the same compound?
A: 5.32 µM

Q: What about the IC50 (second compound 1 µM) of the same compound?
A: 4.22 µM

Q: What about the IC50 (second compound 3.16 µM) of the same compound?
A: 1.71 µM

Q: And the IC50 (second compound 10 µM)?
A: < 0.0316 µM

Q: What about the viability, T/C [1] of the same compound?
A: 102%

Q: And the viability, T/C [2]?
A: 115%

Q: What about the viability, T/C [3] of the same compound?
A: 104%

Q: And the viability, T/C [4]?
A: 101%

Q: What about the viability, T/C [5] of the same compound?
A: 84.4%

Q: And the viability, T/C [6]?
A: 19.3%

Q: And the viability, T/C [7]?
A: 115%

Q: What about the viability, T/C [8] of the same compound?
A: 101%

Q: And the viability, T/C [9]?
A: 110%

Q: What about the viability, T/C [10] of the same compound?
A: 97.9%

Q: And the viability, T/C [11]?
A: 85%

Q: What about the viability, T/C [12] of the same compound?
A: 19.8%

Q: And the viability, T/C [13]?
A: 111%

Q: And the viability, T/C [14]?
A: 103%

Q: And the viability, T/C [15]?
A: 112%

Q: And the viability, T/C [16]?
A: 107%

Q: And the viability, T/C [17]?
A: 75.7%

Q: And the viability, T/C [18]?
A: 18.7%

Q: What about the viability, T/C [19] of the same compound?
A: 91.5%

Q: And the viability, T/C [20]?
A: 104%

Q: And the viability, T/C [21]?
A: 97.2%

Q: And the viability, T/C [22]?
A: 90.7%

Q: What about the viability, T/C [23] of the same compound?
A: 60.8%

Q: What about the viability, T/C [24] of the same compound?
A: 17.9%

Q: And the viability, T/C [25]?
A: 69.3%

Q: And the viability, T/C [26]?
A: 66.7%

Q: What about the viability, T/C [27] of the same compound?
A: 63.9%

Q: And the viability, T/C [28]?
A: 59.3%

Q: What about the viability, T/C [29] of the same compound?
A: 40.2%

Q: And the viability, T/C [30]?
A: 18.3%

Q: And the viability, T/C [31]?
A: 38.6%

Q: What about the viability, T/C [32] of the same compound?
A: 34.1%

Q: What about the viability, T/C [33] of the same compound?
A: 38.1%

Q: What about the viability, T/C [34] of the same compound?
A: 35.7%

Q: And the viability, T/C [35]?
A: 33%

Q: And the viability, T/C [36]?
A: 15.1%

Q: For `CCCS(=O)(=O)Nc1ccc(F)c(C(=O)c2c[nH]c3ncc(-c4ccc(Cl)cc4)cc23)c1F` + Cc1nc(NC(=O)N2CCCC2C(N)=O)sc1-c1ccnc(C(C)(C)C(F)(F)F)c1, which IC50 (second compound 0.0316 µM) is on record?
A: 5.85 µM

Q: What about the IC50 (second compound 0.1 µM) of the same compound?
A: 5.6 µM

Q: What about the IC50 (second compound 0.316 µM) of the same compound?
A: 5.65 µM

Q: What about the IC50 (second compound 1 µM) of the same compound?
A: 4.52 µM

Q: What about the IC50 (second compound 3.16 µM) of the same compound?
A: 3.14 µM

Q: And the IC50 (second compound 10 µM)?
A: < 0.0316 µM

Q: And the viability, T/C [1]?
A: 110%

Q: And the viability, T/C [2]?
A: 92%

Q: What about the viability, T/C [3] of the same compound?
A: 93.7%

Q: And the viability, T/C [4]?
A: 103%

Q: What about the viability, T/C [5] of the same compound?
A: 98%

Q: And the viability, T/C [6]?
A: 8.19%

Q: And the viability, T/C [7]?
A: 100%

Q: What about the viability, T/C [8] of the same compound?
A: 105%

Q: What about the viability, T/C [9] of the same compound?
A: 98.7%

Q: And the viability, T/C [10]?
A: 106%

Q: And the viability, T/C [11]?
A: 90.7%

Q: And the viability, T/C [12]?
A: 8.86%

Q: What about the viability, T/C [13] of the same compound?
A: 99.6%

Q: What about the viability, T/C [14] of the same compound?
A: 111%

Q: And the viability, T/C [15]?
A: 90.8%

Q: And the viability, T/C [16]?
A: 105%

Q: And the viability, T/C [17]?
A: 89.6%

Q: And the viability, T/C [18]?
A: 10.9%

Q: And the viability, T/C [19]?
A: 93.2%

Q: What about the viability, T/C [20] of the same compound?
A: 90.1%

Q: And the viability, T/C [21]?
A: 88.7%

Q: What about the viability, T/C [22] of the same compound?
A: 83.9%

Q: What about the viability, T/C [23] of the same compound?
A: 70.7%

Q: What about the viability, T/C [24] of the same compound?
A: 6.27%

Q: And the viability, T/C [25]?
A: 62%

Q: And the viability, T/C [26]?
A: 56.8%

Q: What about the viability, T/C [27] of the same compound?
A: 56.5%

Q: And the viability, T/C [28]?
A: 58.7%

Q: What about the viability, T/C [29] of the same compound?
A: 49.8%

Q: What about the viability, T/C [30] of the same compound?
A: 6.48%

Q: What about the viability, T/C [31] of the same compound?
A: 33.5%

Q: What about the viability, T/C [32] of the same compound?
A: 32.5%

Q: What about the viability, T/C [33] of the same compound?
A: 38.7%

Q: What about the viability, T/C [34] of the same compound?
A: 36.4%

Q: What about the viability, T/C [35] of the same compound?
A: 31.2%

Q: What about the viability, T/C [36] of the same compound?
A: 5.01%
